This experiment has as its target sigma receptors in brain tissue. In words: In vitro binding: inhibition of (+)-[3H]3-PPP binding in rat whole brain membranes. The note with it: 3 nM (+)-[3H]3-PPP. As for the experimental part:
Affinity of disclosed compounds for sigma receptors in brain tissue was ascertained by the degree of inhibition of binding of the sigma site radioligand, (+)-[^3 H]3-(3-hydroxphenyl)-N-(1-propyl)piperidine ((+)-[^3 H]3-PPP) in competition experiments in vitro. These experiments were conducted by the method of Largent et al. Proc. Nat. Acad. Sec. […] Brains were removed from Sprague-DawleyCD male rats (Charles River Breeding Laboratories, Inc., Wilmington, Mass.; 200-300 g) following decapitation. Whole brain was homogenized in 25 volumes (v/w) of ice-cold 50 mM Tris (tris(hydroxymethyl)amino methane) hydrochloride pH 7.7 buffer using a Polytron PT-10 homogenizer. The pellet resulting from centrifugation of the homogenate at 45,000×g for 10 minutes at 0°-5° was washed twice by resuspension in the same volume of fresh buffer and recentrifugation. The final pellet was dispersed in 50 mM Tris hydrochloride pH 8.0 buffer (50 ml/g of original weight; "tissue preparation"). The incubation mixture in triplicate was comprised of 0.05 ml blank (10 μM pentazocine for nonspecific binding), test compound or vehicle; 0.20 ml (+)-[^3 H]3-PPP (110 Ci/mmol, NEN® DuPont; 3 nM final concentration) in 50 mM Tris hydrochloride pH 8.0 buffer; and 0.75 ml tissue preparation. The latter was added just prior to incubation of the mixture at 25° C. for 90 minutes. Afterwards, the mixture was diluted with 2.5 ml 10 mM Tris hydrochloride pH 7.7 buffer and filtered under vacuum through a Whatman GF/B glass-fiber filter (pretreated with 1% polyethyleneimine) in a Brandell cell harvester to recover the membranes. The filter was washed twice with the diluent buffer and placed in 10 ml Aquasol-2 (NEN® DuPont Co.) for determination of bound radioactivity in a liquid scintillation counter.

For orientation: IC50 means the concentration that inhibits the measured activity by half. Higher therefore signals weaker potency in that assay. With `CN[C@H]1CC[C@H](c2ccc(F)cc2)c2ccccc21` (relative stereo) [(±)-trans 4-F NHCH3], the IC50 (Table 1, racemates) is 66 nM.
Molecule `CN(C)[C@H]1CC[C@@H](c2ccc(Cl)c(Cl)c2)c2ccccc21` [(+)-1S, 4S 3,4-diCl N(CH3)2, Cis(1S) (4S)-N,N-dimethyl-4-(3,4-dichlorophenyl)-1,2,3,4-tetrahydro-1-naphthalenamine] displayed an IC50 (Table 2, enantiomers) of 28 nM.
For the setting “Table 1, racemates”, `CN[C@H]1CC[C@H](c2ccc(Br)cc2)c2ccccc21` (relative stereo) [(±)-trans 4-Br NHCH3] gave an IC50 of 85 nM.
On the same count and under the same terms, in the case of `CN[C@H]1CC[C@H](c2ccc(Cl)c(C(F)(F)F)c2)c2ccccc21` (relative stereo) [(±)-trans 3-CF3,4-Cl NHCH3] it was 31 nM; in that of `CN[C@H]1CC[C@@H](c2ccc(Br)cc2)c2ccccc21` (relative stereo) [(±)-cis 4-Br NHCH3], 13 nM; in that of `CN(C)[C@H]1CC[C@@H](c2ccc(Cl)c(Cl)c2)c2ccccc21` (relative stereo) [(±)-cis 3,4-diCl N(CH3)2], 44 nM.
The same measure, in the same setting: in the case of `CN[C@H]1CC[C@H](c2ccc(C(F)(F)F)cc2)c2ccccc21` (relative stereo) [(±)-trans 4-CF3 NHCH3] it was 39 nM.
Molecule `CN[C@H]1CC[C@@H](c2ccc(Cl)c(C(F)(F)F)c2)c2ccccc21` [(+)-1S, 4S 3-CF3,4-Cl NHCH3, Cis(1S) (4S)-N-methyl-4-(3-trifluoromethyl, 4-chloro-phenyl)-1,2,3,4-tetrahydro-1-naphthalenamine] had an IC50 (Table 2, enantiomers) of 17 nM.
On to `CN[C@H]1CC[C@H](c2cccc(C(F)(F)F)c2)c2ccccc21` (relative stereo) [(±)-trans 3-CF3 NHCH3], for which, under “Table 1, racemates”, the half-maximal inhibitory concentration (IC50) was determined as 16 nM.
On the same count and under the same terms, the figure for `CN[C@H]1CC[C@@H](c2ccc(C(F)(F)F)cc2)c2ccccc21` (relative stereo) [(±)-cis 4-CF3 NHCH3] is 5.9 nM; for `CN[C@H]1CC[C@@H](c2ccc(Cl)c(C(F)(F)F)c2)c2ccccc21` (relative stereo) [(±)-cis 3-CF3,4-Cl NHCH3] it is 11 nM; for `CN[C@H]1CC[C@H](c2ccc(Cl)cc2)c2ccccc21` (relative stereo) [(±)-trans 4-Cl NHCH3] it is 75 nM.
For the molecule `CN[C@H]1CC[C@@H](c2ccc(Cl)cc2)c2ccccc21` [(+)-1S, 4S 4-Cl NHCH3, Cis(1S) (4S)-N-methyl-4-(4-chlorophenyl)-1,2,3,4-tetrahydro-1-naphthalenamine], the half-inhibitory concentration (IC50) (Table 2, enantiomers) came out at 8.7 nM.
As to `N[C@H]1CC[C@@H](c2ccc(Cl)c(Cl)c2)c2ccccc21` [(+)-1S, 4S 3,4-diCl NH2, Cis(1S) (4S)-amino-4-(3,4-dichlorophenyl)-1,2,3,4-tetrahydro-1-naphthalenamine], the IC50 (Table 2, enantiomers) came to 58 nM.
For the molecule `CN(C)[C@H]1CC[C@H](c2ccc(Cl)c(Cl)c2)c2ccccc21` (relative stereo) [(±)-trans 3,4-diCl N(CH3)2], under “Table 1, racemates”, the IC50 is 30 nM.
On the same count and under the same terms, the figure for `CN[C@H]1CC[C@@H](c2ccc(Cl)cc2)c2ccccc21` (relative stereo) [(±)-cis 4-Cl NHCH3] is 33 nM; for `CN[C@H]1CC[C@@H](c2ccc(Cl)cc2Cl)c2ccccc21` (relative stereo) [(±)-cis 2,4-diCl NHCH3] it is 29 nM.

Values taken from patent US5061728A, “Use of 4-phenyl-1,2,3,4-tetrahydro-1-naphthalenamine derivatives in the treatment of inflammation and as immunosuppressants” (Pfizer Inc., priority 1990, dated 1991).
